Assay results: patent US20220133651A1, “TREATMENT OF PITT-HOPKINS SYNDROME” (HEALX LTD, priority 2019, published 2022)
“Also recorded” adds a separate entry of the source. Where a name gives a salt, the structure may show the parent alone.

Legend:
[1] = cited from earlier work
Tcf4+/− mice [2] = test: Fear conditioning (test of learning and memory); format: in vivo, mouse; settings: chronic treatment of Tcf4+/− mice
Source text: The Tcf4+1− mouse model has been developed to mimic PTHS and therefore assess potential treatments. The mice have deficits in hippocampus-dependent learning and memory, spatial working memory, sociability, stereotypy, hyperactivity and daily living paradigms. […] Mice were purchased from The Jackson Laboratory and maintained on a C57BL/6 background. They were raised on a 12:12 light:dark cycle with ad libitum access to food and water. Controls consisted of TCF4+1+. All mice used were heterozygous for the Tcf4 mutation because homozygous mutations result in embryonic/post-partum lethality. There were four treatment groups per compound in the study with 10 male mice used per treatment group (all at 14 weeks of age): Group 1: wild-type littermate mice treated with vehicle (WT+veh); Group 2: Tcf4+/−KO mice treated with vehicle (Tcf4+1−+veh), Group 3: WT+drug; and Group 4: Tcf4+1−+drug. Tcf4+/− mice show reduced freezing in the context of clued fear conditioning test indicating hippocampus-dependent memory and learning deficiency. […] Data were analysed by two-way analysis of variance (ANOVA) followed by post-test comparisons where appropriate using Tukey's Multiple Comparison Test, Data are represented as the mean and standard error of the mean (SEM).

Tcf4+/− mice [3] = test: Dose response experiments in behavioural tests (Study 2); format: in vivo, mouse
Protocol: Dose response experiments were conducted following the protocol described above. Amitriptyline rescued all the behavioral tests at 5 and 10 mg/kg.

Tcf4+/− mice [4] = test: Test of Force (hind limb grip strength); format: in vivo, mouse; settings: chronic treatment of Tcf4+/− mice
Source text: The Tcf4+1− mouse model has been developed to mimic PTHS and therefore assess potential treatments. The mice have deficits in hippocampus-dependent learning and memory, spatial working memory, sociability, stereotypy, hyperactivity and daily living paradigms. […] Mice were purchased from The Jackson Laboratory and maintained on a C57BL/6 background. They were raised on a 12:12 light:dark cycle with ad libitum access to food and water. Controls consisted of TCF4+1+. All mice used were heterozygous for the Tcf4 mutation because homozygous mutations result in embryonic/post-partum lethality. There were four treatment groups per compound in the study with 10 male mice used per treatment group (all at 14 weeks of age): Group 1: wild-type littermate mice treated with vehicle (WT+veh); Group 2: Tcf4+/−KO mice treated with vehicle (Tcf4+1−+veh), Group 3: WT+drug; and Group 4: Tcf4+1−+drug. Tcf4+/− mice show a significant deficit in hindlimb strength (not forelimb) when compared with WT mice. Neuromuscular function of the hindlimbs was tested with a grip strength meter (San Diego Instruments). […] The force applied to the grid at the moment the grasp was released was recorded. Data were analysed by two-way analysis of variance (ANOVA) followed by post-test comparisons where appropriate using Tukey's Multiple Comparison Test, Data are represented as the mean and standard error of the mean (SEM).

Tcf4+/− mice [5] = test: Sociability/Partition test (assessment of social anxiety); format: in vivo, mouse; settings: chronic treatment of Tcf4+/− mice
Source text: The Tcf4+1- mouse model has been developed to mimic PTHS and therefore assess potential treatments. The mice have deficits in hippocampus-dependent learning and memory, spatial working memory, sociability, stereotypy, hyperactivity and daily living paradigms. […] Mice were purchased from The Jackson Laboratory and maintained on a C57BL/6 background. They were raised on a 12:12 light:dark cycle with ad libitum access to food and water. Controls consisted of TCF4+1+. All mice used were heterozygous for the Tcf4 mutation because homozygous mutations result in embryonic/post-partum lethality. There were four treatment groups per compound in the study with 10 male mice used per treatment group (all at 14 weeks of age): Group 1: wild-type littermate mice treated with vehicle (WT+veh); Group 2: Tcf4+/-KO mice treated with vehicle (Tcf4+1-+veh), Group 3: WT+drug; and Group 4: Tcf4+1-+drug. In the three-chambered sociability task, a subject mouse was evaluated for its exploration of a novel social stimulus (novel mouse). […] The time spent exploring the novel mice was scored as exploration ratio. Data were analysed by two-way analysis of variance (ANOVA) followed by post-test comparisons where appropriate using Tukey's Multiple Comparison Test, Data are represented as the mean and standard error of the mean (SEM).

Tcf4+/− mice [6] = test: Nesting (test of daily living); format: in vivo, mouse; settings: chronic treatment of Tcf4+/− mice
Source text: The Tcf4+1− mouse model has been developed to mimic PTHS and therefore assess potential treatments. The mice have deficits in hippocampus-dependent learning and memory, spatial working memory, sociability, stereotypy, hyperactivity and daily living paradigms. […] Mice were purchased from The Jackson Laboratory and maintained on a C57BL/6 background. They were raised on a 12:12 light:dark cycle with ad libitum access to food and water. Controls consisted of TCF4+1+. All mice used were heterozygous for the Tcf4 mutation because homozygous mutations result in embryonic/post-partum lethality. There were four treatment groups per compound in the study with 10 male mice used per treatment group (all at 14 weeks of age): Group 1: wild-type littermate mice treated with vehicle (WT+veh); Group 2: Tcf4+/−KO mice treated with vehicle (Tcf4+1−+veh), Group 3: WT+drug; and Group 4: Tcf4+1−+drug. The test was performed in individual cages. Normal bedding covered the floor to a depth of 0.5 cm. […] Mice were placed individually into the nesting cages 1 hr. before the dark phase, and the results were assessed the next morning. Nest building was scored on a 5 point scale. […] Data were analysed by two-way analysis of variance (ANOVA) followed by post-test comparisons where appropriate using Tukey's Multiple Comparison Test, Data are represented as the mean and standard error of the mean (SEM).

Tcf4+/− mice [7] = test: Open field (measure of hyperactivity); format: in vivo, mouse; settings: chronic treatment of Tcf4+/− mice
Source text: The Tcf4+1− mouse model has been developed to mimic PTHS and therefore assess potential treatments. The mice have deficits in hippocampus-dependent learning and memory, spatial working memory, sociability, stereotypy, hyperactivity and daily living paradigms. […] Mice were purchased from The Jackson Laboratory and maintained on a C57BL/6 background. They were raised on a 12:12 light:dark cycle with ad libitum access to food and water. Controls consisted of TCF4+1+. All mice used were heterozygous for the Tcf4 mutation because homozygous mutations result in embryonic/post-partum lethality. There were four treatment groups per compound in the study with 10 male mice used per treatment group (all at 14 weeks of age): Group 1: wild-type littermate mice treated with vehicle (WT+veh); Group 2: Tcf4+/−KO mice treated with vehicle (Tcf4+1−+veh), Group 3: WT+drug; and Group 4: Tcf4+1−+drug. The open-field apparatus was used to test hyperactivity. […] The number of squares entered by the whole body (locomotor activity) was counted. The movement of the mouse around the field was recorded with a video tracking device for 3 min (version NT4.0, Viewpoint). Data were analysed by two-way analysis of variance (ANOVA) followed by post-test comparisons where appropriate using Tukey's Multiple Comparison Test, Data are represented as the mean and standard error of the mean (SEM).

Tcf4+/− mice [8] = test: Self-grooming (assessment of stereotypy); format: in vivo, mouse; settings: chronic treatment of Tcf4+/− mice
Source text: The Tcf4+1− mouse model has been developed to mimic PTHS and therefore assess potential treatments. The mice have deficits in hippocampus-dependent learning and memory, spatial working memory, sociability, stereotypy, hyperactivity and daily living paradigms. […] Mice were purchased from The Jackson Laboratory and maintained on a C57BL/6 background. They were raised on a 12:12 light:dark cycle with ad libitum access to food and water. Controls consisted of TCF4+1+. All mice used were heterozygous for the Tcf4 mutation because homozygous mutations result in embryonic/post-partum lethality. There were four treatment groups per compound in the study with 10 male mice used per treatment group (all at 14 weeks of age): Group 1: wild-type littermate mice treated with vehicle (WT+veh); Group 2: Tcf4+/−KO mice treated with vehicle (Tcf4+1−+veh), Group 3: WT+drug; and Group 4: Tcf4+1−+drug. […] Usually in a sitting position, the mouse will lick its fur, groom with the forepaws, or scratch with any limb. Often the mouse will mix all of these grooming behaviors. […] Data were analysed by two-way analysis of variance (ANOVA) followed by post-test comparisons where appropriate using Tukey's Multiple Comparison Test, Data are represented as the mean and standard error of the mean (SEM).

In the case of `CN(C)CCC=C1c2ccccc2CCc2ccccc21` [amitriptyline HCL, 3-(10,11-dihydro-5H-dibenzo [ad]cycloheptene-5-ylidene)-N,N-dimethyl-1-propanamine hydrochloride], the solubility in water [1] is listed as “freely soluble”.

With `CN(C)CCC=C1c2ccccc2CCc2ccccc21` [amitriptyline] the “fear conditioning (learning and memory)” value (Tcf4+/− mice [2]) was “significantly improved; also recorded: rescuing”, the “all the behavioral tests (dose response)” value (Tcf4+/− mice [3]; 5 mg/kg) was “rescued” and the “all the behavioral tests (dose response)” value (Tcf4+/− mice [3]; 10 mg/kg) was “rescued”. The “test of force (strength)” value (Tcf4+/− mice [4]) was “significantly improved; also recorded: rescuing”, the “sociability (social anxiety)” value (Tcf4+/− mice [5]) was “significantly improved; also recorded: rescuing” and the “nesting (tests of daily living)” value (Tcf4+/− mice [6]) was “significantly improved; also recorded: rescuing”. For the same compound, the “open field (hyperactivity)” value (Tcf4+/− mice [7]) was “significantly improved; also recorded: rescuing” and the “self-grooming (stereotypy)” value (Tcf4+/− mice [8]) was “significantly improved; also recorded: rescuing”.
